In patent US10265421B2, “Hyperpolarized esters as metabolic markers in MR” (BRACCO IMAGING S.P.A., priority 2013, dated 2019):
One block for each compound: values may come before it.

Columns and labels:
[1] = DNP conversion of hyperpolarized substrates in human blood; assay type: in vitro ADME; details: 2.5 ml human blood, approx. 5 mM substrate
Method: (§1) In all experiments 2.5 ml human blood or 2.5 ml rat blood was used. […] Data are presented as area under the curve of the metabolites divided by the substrate signal in the first spectrum and multiplied by 100 to obtain the unit, DNP conversion in percentage.

rat cancer cells = test: Concentration dependent metabolism of hyperpolarized substrates in rat cancer cells; assay type: cell-based; details: approx. 1, 3.5 and 10 mM, 10 million cells, maximum peak intensity
Excerpt: In all experiments 10 million cells were used. The experimental set-up from Example 2.b was applied. Data are shown as maximum peak intensity of either substrate or metabolite signals.

[2] = DNP conversion of hyperpolarized substrates in rat blood; assay type: in vitro ADME; details: 2.5 ml rat blood, approx. 5 mM substrate
Method: as §1

CE1 from pig's liver = test: Carboxyl esterase activity on different ethyl esters (1H NMR); assay type: biochemical; details: 26 μmol substrate, pH 7.5, 37° C., 60 min
Method: The experiments were performed with commercially available CE1 from pig's liver.
The ethyl esters used as substrates are: ethyl acetoacetate (EAA); ethyl acetate (EA); ethyl butyrate (EB); ethyl pyroglutamate (EPG); ethyl pyruvate (EP); diethyl succinate (DES).
Individual samples of the substrates were all made in the following way: 26 μmol was weighted in an eppendorf tube. 550 μl deuterated phosphate buffer (200 mM, pH 7.5) was added and the substrate was brought into solution by whirl mixing. The solution was transferred to a 5 mm NMR tube and inserted in the spectrometer at 37° C. A reference experiment was acquired on the substrate solution without enzyme after which 10 μl of an esterase stock solution (37 U/ml in deuterated phosphate buffer) was added in the top of the tube. The sample was mixed and returned to the spectrometer. A series of thermal 1D 1H NMR experiments were recorded every 5 min for 60 min. The data were analyzed and presented as peak intensity of the product scaled to the peak intensity of the substrate signal in the first spectrum.

[3] = non-tumor and tumor bearing mice; cited from earlier work
[4] = test system: human liver cancer cells (HepG2); test: In cell DNP conversion of hyperpolarized substrate in human liver cancer cells; assay type: cell-based; details: whole HepG2 cells, 10 million cells, 3.5 mM substrate, 37° C.
Method: (§2) To the solution was added a DMSO solution of gadolinium complex [[α1,α4,α7-tris[(phenylmethoxy)methyl]-1,4,7,10-tetraazacyclododecane-1,4,7,10-tetraacetate(4-)]gadolinate(1-)]hydrogen (1.1 mg of a 100 μmol/g solution). The concentration of radical and gadolinium were 17 mM and 2.3 mM respectively.
(§3) B) 30 μmol of solution A) was hyperpolarized. The sample was dissolved in 5 ml phosphate buffer (40 mM, pH 7.3). The pH after dissolution was 7.3.
(§4) A) 10 million cells (either rat liver cancer cells (Morris7777) or human liver cancer cells (HEP-G2)) were harvested and redissolved in […] phosphate buffer (PBS). The cells in suspension were transferred to a 10 mm NMR tube and placed with a connecting tubing in a 14.1 T magnet at 37° C.
(§5) A series of 30 degree pulses every 2 s (56 scans in total) was acquired. The acquisition was started just before injection of the hyperpolarized substrate.

[5] = test system: rat liver cancer cells (Morris7777); test: In cell DNP conversion of hyperpolarized substrate in rat liver cancer cells; assay type: cell-based; details: whole Morris7777 cells, 10 million cells, 3.5 mM substrate, 37° C.
Method: as §2, §3, §4, §5
The two substrates were co-polarized without mixing the substrates. Following dissolution in 5 ml phosphate buffer (40 mM pH 7.3) with addition of 2.5 μl NaOH to neutralize the pyruvic acid (which is thus converted into the pyruvate anion form), the substrate mixture was injected into 10 million cells in suspension. The experiment was performed as described in Example 2.b. […]

carboxylesterase [6] = test: In vivo localized dynamic 13C MRS in healthy liver and liver cancer; design: species or system rat; details: 0.4 mmol/kg i.v.
Method: One million McA-RH7777 cells have been suspended in 0.2 mL of Dulbecco's Modified Eagle's Medium (DMEM) and injected under the hepatic capsula of the liver left lobe of anesthetized Buffalo rats.
The sample was dissolved in 5 ml TRIS buffer (40 mM, pH 7) added with EDTA 100 mg/l. The pH after dissolution was 7.5.
A total of 8 animals were used in the study. 4 rats were implanted with the tumour (i.e. tumour group) whereas the remaining animals were used as controls (i.e. liver group) in order to have a comparison between healthy and diseased tissue on the same strain. The metabolic fate of injected ethyl [1,3-^13C2]-acetoacetate was followed by means of a localised spectroscopy sequence which allows a selective acquisition of either tumour or healthy liver tissue. Acquisition started just before injecting the hyperpolarized substrate and comprised a series of 64 time-domain points sampled at a rate of 3 s. The applied flip angle was equal to 10 degrees.

[7] = anesthetized rat; cited from earlier work
carboxylesterase [8] = test: In vivo 13C CSI in rat liver with implanted Morris7777 tumor
Method: 4 anesthetized Buffalo rats were injected under the hepatic capsula of the liver left lobe with one million McA-RH7777 cells suspended in 0.2 mL of Dulbecco's Modified Eagle's Medium (DMEM) medium.
The sample was dissolved in 5 ml TRIS buffer (40 mM, pH 7) added with EDTA 100 mg/I. The pH after dissolution was 7.5.
Chemical Shift Imaging (CSI) maps were acquired on a approx. 8 mm coronal slice placed in the abdominal region of the rat. The in plane field of view was set to 40×55 mm^2 and the corresponding matrix size was 14×14.

carboxylesterase [9] = test: General carboxylesterase activity in sonicated cancer cells (spectrophotometric, NA substrate); assay type: biochemical; details: liver cancer cells (rat and human) and prostate cancer cells; 1 mM substrate, 10 min, 30 degrees
Method: General carboxylesterase activity was determined spectrophotometrically using the carboxylesterase substrate 1-naphthyl acetate (NA) as described previously (Rudakova, 2011). Briefly, sonicated cells were incubated with 1 mM substrate in 150 mM phosphate buffer (pH 7.5), and generation of 1-naphtol was monitored at 322 nm and quantified from its extinction coefficient (2200 M−1 cm−1). The reaction is allowed to take place for 10 min at 30 degrees. […] Cells of different origin (rat hepatoma, Morris; human hepatoma, HepG2; human prostate carcinoma, PC-3; human breast carcinoma, MCF-7) were harvested and redissolved in phosphate buffer to a concentration of 10 million cells/ml. The sample composition was as follows: 923 μl phosphate buffer (150 mM pH 7.3)+77 μl NA solution (13 mM in acetone)+100 μl cells in suspension. The absorbance of the samples were compared to reference samples where acetone was added instead of substrate. The esterase activity was calculated using the extinction coefficient ε322=2200 M^−1 cm^−1.

Structure (SMILES): CCO[13C](=O)C[13C](C)=O [ethyl [1,3-^13C2]-acetoacetate]
conversion in vivo [3]: rapidly converted into acetoacetate | build-up of hyperpolarized acetoacetate anion from hydrolysis [4]: possible to follow the build-up of the product | build-up of hyperpolarized acetoacetate anion from hydrolysis [5]: possible to follow the build-up of the product | ramping up rate of metabolite signal, healthy liver with respect to cancer tissue (carboxylesterase [6]; localized spectroscopy): ≥ 2 | uptake and conversion in liver cells in vivo (carboxylesterase [6]; healthy and diseased liver): taken up by both healthy and diseased liver cells and converted into its hyperpolarized metabolite

Structure (SMILES): CCO[13C](=O)C(C)=O [ethyl [1-^13C]-pyruvate]
uptake into brain [7]: rapid and preferential

Structure (SMILES): CCOC(C)=O [ethyl acetate]
factor by which diethyl succinate is converted faster than this substrate (CE1 from pig's liver): ten times faster converted

Structure (SMILES): CCOC(=O)CC(C)=O [ethyl acetoacetate]
build-up of metabolite signal in human blood [1]: no build-up of metabolite signal could be measured | distribution of substrate signal (CSI map) (carboxylesterase [8]; Morris hepatocellular carcinoma bearing rat, 0.4 mmol/kg i.v., 20 s acquisition): mainly observed in the tumour mass | conversion in healthy liver during acquisition (carboxylesterase [8]; healthy liver, 20 s acquisition time): almost completely converted | factor by which diethyl succinate is converted faster than this substrate (CE1 from pig's liver): ~2 | carboxyl esterase activity (capacity of cells to hydrolyse substrate) (carboxylesterase [9]): up to 95 mU/million cells | change of metabolite signal with increasing substrate concentration (rat cancer cells): increases almost quantitatively with increasing substrate concentration | build-up of metabolite signal in rat blood [2]: conversion of ethyl acetoacetate is seen

The next lines start with results.

build-up of metabolite signal in human blood [1]: build-up of lactate is significant | build-up of metabolite signal in rat blood [2]: build-up of lactate is significant
Structure (SMILES): CC(=O)C(=O)O [[1-^13C]-pyruvate, reference compound]
change of metabolite signal with increasing substrate concentration (rat cancer cells): unchanged going from 3 mM to 10 mM

conversion (turnover) by CE1 (CE1 from pig's liver): overall fastest converted substrate
Structure (SMILES): CCOC(=O)CCC(=O)OCC [diethyl succinate]

factor by which diethyl succinate is converted faster than this substrate (CE1 from pig's liver): ~2
Structure (SMILES): CCCC(=O)OCC [ethyl butyrate]

conversion (turnover) by CE1 (CE1 from pig's liver): barely detectable
Structure (SMILES): CCOC(=O)[C@@H]1CCC(=O)N1 [ethyl pyroglutamate]

conversion (turnover) by CE1 (CE1 from pig's liver): no conversion at all could be measured
Structure (SMILES): CCOC(=O)C(C)=O [ethyl pyruvate, reference compound]

conversion (turnover) by CE1 (CE1 from pig's liver): not a substrate for CE1
Structure (SMILES): CCOC(=O)CCC(=O)O [mono-ester]
